Data on 24 compounds can be found in patent US9663473B2 (Actelion Pharmaceuticals Ltd, priority 2013, dated 2017).

The assay deals with T1, recombinant human ALX receptor (Homo sapiens, UniProt P25090).
T1 construct: expressed in transfected cells; host or cells: HEK293 (HEK293-hALXR-Gα16)
T1 sequence (P25090 1-351): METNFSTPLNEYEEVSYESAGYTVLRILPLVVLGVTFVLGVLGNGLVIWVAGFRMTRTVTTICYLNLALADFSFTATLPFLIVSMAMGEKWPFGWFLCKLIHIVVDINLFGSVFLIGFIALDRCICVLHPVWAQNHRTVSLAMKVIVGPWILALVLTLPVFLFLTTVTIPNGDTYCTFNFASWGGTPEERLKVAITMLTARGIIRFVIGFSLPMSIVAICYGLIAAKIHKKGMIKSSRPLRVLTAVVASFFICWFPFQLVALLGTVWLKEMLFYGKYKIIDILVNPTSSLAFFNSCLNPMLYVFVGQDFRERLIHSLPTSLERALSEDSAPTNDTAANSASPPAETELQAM
Nature of the assay: Intracellular calcium measurements (FLIPR), ALX receptor agonistic activity. The assay is classed as cell-based. To be noted: HEK293-hALXR-Gα16 cells, Fluo-4 calcium signal, normalized to WKYMVm 10 nM. The procedure:
The ALX receptor agonistic activity of the compounds of formula (I) is determined in accordance with the following experimental method.
Intracellular Calcium Measurements:
Cells expressing recombinant human ALX receptor and the G-protein Gα16 (HEK293-hALXR-Gα16) were grown to 80% confluency in Growing Medium (GM). Cells were detached from culture dishes with a cell dissociation buffer (Invitrogen, 13151-014), and collected by centrifugation at 1′000 rpm at rt for 5 min in Assay Buffer (AB) (equal parts of Hank's BSS (Gibco, 14065-049) and DMEM without Phenol Red (Gibco, 11880-028)). After 60 min incubation at 37° C. under 5% CO2 in AB supplemented with 1 μM Fluo-4 (AM) (Invitrogen, F14202) and 20 mM HEPES (Gibco, 15630-056), the cells were washed and resuspended in AB. They were then seeded onto 384-well FLIPR assay plates (Greiner, 781091) at 50′000 cells in 70 μl per well and sedimented by centrifugation at 1′000 rpm for 1 min. Stock solutions of test compounds were made up at a concentration of 10 mM in DMSO, and serially diluted in AB to concentrations required for activation dose response curves. WKYMVm (Phoenix Peptides) was used as a reference agonist. A FLIPR Tetra instrument (Molecular Devices) was operated according to the manufacturer's standard instructions, adding 4 μl of test compound dissolved at 10 mM in DMSO and diluted prior to the experiment in assay buffer to obtain the desired final concentration. Changes in fluorescence were monitored before and after the addition of test compounds at lex=488 nm and lem=540 nm. Emission peak values above base level after compounds addition were exported after base line subtraction. Values were normalized to high-level control (WKYMVm compound, 10 nM final concentration) after subtraction of the base line value (AB addition).
Background: A change in cytosolic calcium serves as a functional read-out for many receptors and channels.

One may read the EC50 as the concentration that produces a half-maximal response. With `O=C(NC(Cc1ccc(Br)cc1)c1nc2cc(Cl)ccc2[nH]1)N[C@H]1CC[C@H](O)CC1` (relative stereo) [Example 81, 1-(2-(4-Bromophenyl)-1-(5-chloro-1H-benzo[d]imidazol-2-yl)ethyl)-3-(trans-4-hydroxycyclohexyl)urea], the EC50 is 1.4 nM.

With `COc1ccc(CC(NC(=O)N[C@H]2CC[C@H](O)CC2)c2nc3cc(C(F)(F)F)ccc3[nH]2)cc1` (relative stereo) [Example 82, 1-(trans-4-Hydroxycyclohexyl)-3-(2-(4-methoxyphenyl)-1-(5-(trifluoromethyl)-1H-benzo[d]imidazol-2-yl)ethyl)urea], the concentration giving a half-maximal response (EC50) worked out at 2.3 nM. For `COc1ccc(C[C@@H](NC(=O)NC[C@H]2CCCC[C@@H]2O)c2nc3ccccc3[nH]2)cc1` (relative stereo) [Example 103, 1-((R)-1-(1H-Benzo[d]imidazol-2-yl)-2-(4-methoxyphenyl)ethyl)-3-(((1R*,2S*)-2-hydroxycyclohexyl)methyl)urea] the value was 309 nM; for `COc1ccc(C[C@@H](NC(=O)N[C@H]2CC[C@H](O)c3ccccc32)c2nc3ccccc3[nH]2)cc1` (relative stereo) [Example 134, 1-((R)-1-(1H-Benzo[d]imidazol-2-yl)-2-(4-methoxyphenyl)ethyl)-3-((1 S*,4S*)-4-hydroxy-1,2,3,4-tetrahydronaphthalen-1-yl)urea], 107 nM; for `COc1ccc(C[C@@H](NC(=O)N[C@@H]2CCCC[C@@H]2O)c2nc3ccccc3[nH]2)cc1` (relative stereo) [Example 145, 1-((R)-1-(1H-Benzo[d]imidazol-2-yl)-2-(4-methoxyphenyl)ethyl)-3-((1R*,2S*)-2-hydroxycyclohexyl)urea], 62 nM. In the case of `CCOC(=O)[C@@H]1CCCC[C@H]1NC(=O)N[C@H](Cc1ccc(OC)cc1)c1nc2ccccc2[nH]1` (relative stereo) [Example 161, (1R*,2R*)-Ethyl 2-(3-((R)-1-(1H-benzo[d]imidazol-2-yl)-2-(4-methoxyphenyl)ethyl)ureido)cyclohexanecarboxylate] it was 0.6 nM; in that of `COc1ccc(C[C@@H](NC(=O)N[C@@H]2CCCC[C@H]2C(N)=O)c2nc3ccccc3[nH]2)cc1` (relative stereo) [Example 163, (1R*,2R*)-2-(3-((R)-1-(1H-Benzo[d]imidazol-2-yl)-2-(4-methoxyphenyl)ethyl)ureido)cyclohexanecarboxamide], 120 nM.

For `COc1ccc(C[C@@H](NC(=O)N[C@@H]2CCNC[C@@H]2F)c2nc3ccccc3[nH]2)cc1` (relative stereo) [Example 164, 1-((R)-1-(1H-Benzo[d]imidazol-2-yl)-2-(4-methoxyphenyl)ethyl)-3-((3S*,4R*)-3-fluoropiperidin-4-yl)urea], the concentration for a half-maximal effect (EC50) came to 25 nM. In the case of `COc1ccc(C[C@@H](NC(=O)N[C@H]2CCNC[C@@H]2F)c2nc3ccccc3[nH]2)cc1` (relative stereo) [Example 165, 1-((R)-1-(1H-Benzo[d]imidazol-2-yl)-2-(4-methoxyphenyl)ethyl)-3-((3S*,4S*)-3-fluoropiperidin-4-yl)urea] it was 27 nM; in that of `COc1ccc(CC(NC(=O)N[C@H]2CC[C@H](O)CC2)c2nc3ccccc3[nH]2)cc1F` (relative stereo) [Example 167, 1-(1-(1H-Benzo[d]imidazol-2-yl)-2-(3-fluoro-4-methoxyphenyl)ethyl)-3-(trans-4-hydroxycyclohexyl)urea], 9.5 nM. For `COc1ccc(C[C@@H](NC(=O)N[C@@H]2CC[C@H](O)C2)c2nc3ccccc3[nH]2)cc1` (relative stereo) [Example 171, 1-((R)-1-(1H-Benzo[d]imidazol-2-yl)-2-(4-methoxyphenyl)ethyl)-3-((1R*,3S*)-3-hydroxycyclopentyl)urea] the value was 38 nM; for `COc1ccc(C[C@@H](NC(=O)N[C@H]2CC[C@H](O)C2)c2nc3ccccc3[nH]2)cc1` (relative stereo) [Example 172, 1-((R)-1-(1H-Benzo[d]imidazol-2-yl)-2-(4-methoxyphenyl)ethyl)-3-((1 S*,3S*)-3-hydroxycyclopentyl)urea], 15 nM; for `COc1ccc(C[C@@H](NC(=O)N[C@H]2CNC[C@@H]2F)c2nc3ccccc3[nH]2)cc1` (relative stereo) [Example 184, 1-((R)-1-(1H-Benzo[d]imidazol-2-yl)-2-(4-methoxyphenyl)ethyl)-3-((3S*,4S*)-4-fluoropyrrolidin-3-yl)urea], 829 nM. For `COc1ccc(C[C@@H](NC(=O)N[C@@H]2CNC[C@@H]2F)c2nc3ccccc3[nH]2)cc1` (relative stereo) [Example 185, 1-((R)-1-(1H-Benzo[d]imidazol-2-yl)-2-(4-methoxyphenyl)ethyl)-3-((3R*,4S*)-4-fluoropyrrolidin-3-yl)urea] the value was 143 nM; for `O=C(NC(Cc1ccc(Br)c(F)c1)c1nc2ccccc2[nH]1)N[C@H]1CC[C@H](O)CC1` (relative stereo) [Example 187, 1-(1-(1H-Benzo[d]imidazol-2-yl)-2-(4-bromo-3-fluorophenyl)ethyl)-3-(trans-4-hydroxycyclohexyl)urea], 8.1 nM; for `O=C(NC(Cc1ccc(Br)cc1F)c1nc2ccccc2[nH]1)N[C@H]1CC[C@H](O)CC1` (relative stereo) [Example 188, 1-(1-(1H-Benzo[d]imidazol-2-yl)-2-(4-bromo-2-fluorophenyl)ethyl)-3-(trans-4-hydroxycyclohexyl)urea], 3.7 nM. For `COc1ccc(CC(NC(=O)N[C@H]2CC[C@H](O)CC2)c2nc3ccccc3[nH]2)c(F)c1` (relative stereo) [Example 210, 1-(1-(1H-Benzo[d]imidazol-2-yl)-2-(2-fluoro-4-methoxyphenyl)ethyl)-3-(trans-4-hydroxycyclohexyl)urea], the EC50 was found to be 1.9 nM. In the case of `COc1ccc(CC(NC(=O)N[C@H]2CC[C@](C)(O)CC2)c2nc3ccccc3[nH]2)cc1F` (relative stereo) [Example 226, 1-(1-(1H-Benzo[d]imidazol-2-yl)-2-(3-fluoro-4-methoxyphenyl)ethyl)-3-(trans-4-hydroxy-4-methylcyclohexyl)urea] it was 6.6 nM. For `COc1ccc(CC(NC(=O)N[C@H]2CC[C@@](C)(O)CC2)c2nc3ccccc3[nH]2)cc1F` (relative stereo) [Example 227, 1-(1-(1H-Benzo[d]imidazol-2-yl)-2-(3-fluoro-4-methoxyphenyl)ethyl)-3-(cis-4-hydroxy-4-methylcyclohexyl)urea] the value was 97 nM; for `COc1ccc(CC(NC(=O)N[C@H]2CC[C@H](O)CC2)c2nc3ccccc3[nH]2)c(F)c1F` (relative stereo) [Example 232, 1-(1-(1H-Benzo[d]imidazol-2-yl)-2-(2,3-difluoro-4-methoxyphenyl)ethyl)-3-(trans-4-hydroxycyclohexyl)urea], 2.6 nM.

As to `COc1cc(F)c(CC(NC(=O)N[C@H]2CC[C@H](O)CC2)c2nc3ccccc3[nH]2)c(F)c1` (relative stereo) [Example 235, 1-(1-(1H-Benzo[d]imidazol-2-yl)-2-(2,6-difluoro-4-methoxyphenyl)ethyl)-3-(trans-4-hydroxycyclohexyl)urea], the EC50 was found to be 3.2 nM. Regarding `O=C(NC(Cc1ccc(C(F)(F)F)c(F)c1)c1nc2ccccc2[nH]1)N[C@H]1CC[C@H](O)CC1` (relative stereo) [Example 237, 1-(1-(1H-Benzo[d]imidazol-2-yl)-2-(3-fluoro-4-(trifluoromethyl)phenyl)ethyl)-3-(trans-4-hydroxycyclohexyl)urea], the concentration giving a half-maximal response (EC50) was determined as 36 nM. Regarding `O=C(NC(Cc1ccc(C(F)(F)F)cc1F)c1nc2ccccc2[nH]1)N[C@H]1CC[C@H](O)CC1` (relative stereo) [Example 240, 1-(1-(1H-Benzo[d]imidazol-2-yl)-2-(2-fluoro-4-(trifluoromethyl)phenyl)ethyl)-3-(trans-4-hydroxycyclohexyl)urea], the EC50 was 12 nM. In the case of `COc1c(F)cc(CC(NC(=O)N[C@H]2CC[C@H](O)CC2)c2nc3ccccc3[nH]2)cc1F` (relative stereo) [Example 241, 1-(1-(1H-Benzo[d]imidazol-2-yl)-2-(3,5-difluoro-4-methoxyphenyl)ethyl)-3-(trans-4-hydroxycyclohexyl)urea], the concentration for a half-maximal effect (EC50) was found to be 138 nM.
